# Measurements: patent publication US11844767B2, “Composition and methods for stimulating clearance of amyloid-beta protein” (Rush University Medical Center, priority 2016, dated 2023)
# Legend:
# LDLR = assay: Quantitative RT-PCR of LDLR expression in astrocytes; type: cell-based, mouse
# Experimental: The mRNA quantification was performed using the ABI-Prism7700 sequence detection system using SYBR Select master mix. The mRNA expression of the targeted genes was normalized to the level of Gapdh mRNA and data was processed by the ABI Sequence Detection System 1.6 software.
# TFEB = details: alone and in conjunction with all-trans-retinoic acid; cited from earlier work
compound,measurement,setting,value
"Cc1ccc(C)c(OCCCC(C)(C)C(=O)O)c1 [GFB, gemfibrozil]",expression of LDLR,LDLR; PPARα(−/−) cells,not
same,expression of LDLR,LDLR; WT astrocytes,increased
same,TFEB in brain cells,TFEB,capable of enhancing TFEB
